Assay results taken from patent EP3064205A1, “Therapeutic use of isomeric forms of 2-(4-chlorophenyl)quinolin-4-yl)(piperidin-2-yl)methanol” (Glionova AB, priority 2015, dated 2016).
Like-named read-outs stand apart in the source and are kept apart here.

Assays:
Test in all cases: 3D clonogenic assay (PDX)
Assay type in all cases: cell-based, human
LXFA 297 = settings: LXFA 297, Lung Adeno; for IC50: Homo sapiens
Experimental: (§1) The anti-tumor efficacy of S1 in the patient-derived tumor xenograft (PDX) tumor panel was assessed, where the efficacy of S1 in PDX tumor panel in the 96-well format, in 10 concentrations in duplicate was performed. Colony formation of tumor cell suspensions in a soft-agar matrix was observed and quantified. The output is IC50 values and dose response-relationships based on number of colonies in control and treatment wells, as identified by an automated image analysis algorithm. Stock solution of S1 was prepared in 100% DMSO at 10 mM concentration (stored at -20°C) and reused for each experiment. Compound final test concentrations: Dilution series ½ i.e.: 50µM, 15, 5, 1.5, 0.5, 0.15, 0.05, 0.015, 0.005 and 0.0015.
(§2) Tumor xenografts (also referred to as patient-derived tumor xenografts) were passaged as subcutaneous xenografts in NMRI nu/nu mice. Tumor xenograft were removed from mice under sterile conditions, mechanically disaggregated and subsequently incubated with an enzyme cocktail consisting of collagenase type IV (41 U/mL), DNase I (125 U/mL), hyaluronidase type III (100 U/mL) and dispase II (1.0 U/mL) in RPMI 1640 medium at 37°C for 60 - 120 minutes. Cells were passed through sieves of 100 µm and 40 µm mesh size and washed with RPMI 1640 medium. The percentage of viable cells was determined in a Neubauer-hemocytometer using trypan blue exclusion. Aliquots of the cells were frozen down, and stored in liquid nitrogen.
(§3) The clonogenic assay test was carried out in 96 well plate format. For each test a frozen aliquot of tumor cells prepared from tumor xenografts was thawed and assay plates were prepared as follows: each test well contained 3 layers of equal volume, 2 layers of semi-solid medium (bottom and top layer), and one layer of medium supernatant, with or without test compound. The bottom layer consisted of 0.05 mL/well Iscove's Modified Dulbecco's Medium (Invitrogen), supplemented with 20% (v/v) fetal calf serum (Sigma), 0.01% (w/v) gentamicin (Invitrogen) and 0.75% (w/v) agar (BD Biosciences). Tumor cells were added to 0.05 mL of the same culture medium supplemented with 0.4% (w/v) agar and plated onto the bottom layer. After 24 h, test compounds were added after serial dilution in DMSO and transfer in cell culture medium, and left on the cells for the duration of the experiment (continuous exposure, 0.05 mL drug overlay). Every dish included six untreated control wells and drug-treated groups in duplicate at 10 concentrations. Cultures were incubated at 37 °C and 7.5% CO2 in a humidified atmosphere for 8 to 13 days and monitored closely for colony growth using an inverted microscope. Within this period, ex vivo tumor growth lead to the formation of colonies with a diameter of >50 µm. At the time of maximum colony formation, counts were performed with an automatic image analysis system. 24 h prior to evaluation, vital colonies were stained with a sterile aqueous solution of 2-(4-iodophenyl)-3-(4-nitrophenyl)-5-phenyltetrazolium chloride (1 mg/mL, 100 µL/well). Sigmoidal concentration-response curves were fitted to the data points obtained for each tumor model using 4 parameter non-linear curve fit (Oncotest Warehouse Software). IC50 values are reported as relative IC50 values, being the concentration of test compound that give a response (inhibition of colony formation/viability) half way between the top and bottom plateau of the sigmoidal concentration-response curve (inflection point of the curve), or as absolute IC50 values, being the concentration of test compound at the intersection of the concentration-response curves with T/C = 50%. For calculation of mean IC50 values the geometric mean was used. Results are presented as mean graph plots or heat maps (individual IC50 values relative to the geometric mean IC50 value) over all cell lines as tested.

PXF 1752 = settings: PXF 1752, Pleuramesothelioma; for IC50: Homo sapiens
Experimental: as §1, §2, §3

GXA 3040 = settings: GXA 3040, Asian Gastric; for IC50: Homo sapiens
Experimental: as §1, §2, §3

CXF 1297 = settings: CXF 1297, Colorectal; for IC50: Homo sapiens
Experimental: as §1, §2, §3

MEXF 276 = settings: MEXF 276, Melanoma; for IC50: Homo sapiens
Experimental: as §1, §2, §3

GXF 214 = settings: GXF 214, Gastric; for IC50: Homo sapiens
Experimental: as §1, §2, §3

PAXF 2059 = settings: PAXF 2059, Pancreas; for IC50: Homo sapiens
Experimental: as §1, §2, §3

LXFA 623 = settings: LXFA 623, Lung Adeno; for IC50: Homo sapiens
Experimental: as §1, §2, §3

CXF 280 = settings: CXF 280, Colorectal; for IC50: Homo sapiens
Experimental: as §1, §2, §3

MAXF 713 = settings: MAXF 713, Breast; for IC50: Homo sapiens
Experimental: as §1, §2, §3

CXF 742 = settings: CXF 742, Colorectal; for IC50: Homo sapiens
Experimental: as §1, §2, §3

LXFE 397 = settings: LXFE 397, Lung Epidermoid; for IC50: Homo sapiens
Experimental: as §1, §2, §3

- IC50 (LXFA 297; read-out: abs. IC50): 8.58 µM
- IC50 (LXFA 297; read-out: rel. IC50): 8.45 µM
- IC50 (PXF 1752; read-out: abs. IC50): 8.98 µM
- IC50 (PXF 1752; read-out: rel. IC50): 8.85 µM
- IC50 (GXA 3040; read-out: abs. IC50): 8.84 µM
- IC50 (GXA 3040; read-out: rel. IC50): 8.79 µM
- IC50 (CXF 1297; read-out: abs. IC50): 6.42 µM
- IC50 (CXF 1297; read-out: rel. IC50): 6.37 µM
- IC50 (MEXF 276; read-out: abs. IC50): 4.73 µM
- IC50 (MEXF 276; read-out: rel. IC50): 4.65 µM
- IC50 (GXF 214; read-out: abs. IC50): 4.92 µM
- IC50 (GXF 214; read-out: rel. IC50): 4.89 µM
- IC50 (PAXF 2059; read-out: abs. IC50): 13.8 µM
- IC50 (PAXF 2059; read-out: rel. IC50): 13 µM
- IC50 (LXFA 623; read-out: abs. IC50): 4.63 µM
- IC50 (LXFA 623; read-out: rel. IC50): 4.62 µM
- IC50 (CXF 280; read-out: abs. IC50): 8.65 µM
- IC50 (CXF 280; read-out: rel. IC50): 8.62 µM
- IC50 (MAXF 713; read-out: abs. IC50): 9.16 µM
- IC50 (MAXF 713; read-out: rel. IC50): 8.6 µM
- IC50 (CXF 742; read-out: abs. IC50): 41.3 µM
- IC50 (CXF 742; read-out: rel. IC50): 41.3 µM
- IC50 (LXFE 397; read-out: abs. IC50): 5.14 µM
- IC50 (LXFE 397; read-out: rel. IC50): 4.77 µM
Structure (SMILES): O[C@H](c1cc(-c2ccc(Cl)cc2)nc2ccccc12)[C@@H]1CCCCN1 [S1, (R)-(2-(4-chlorophenyl)quinolin-4-yl)((S)-piperidin-2-yl)methanol]
- b (bottom plateau of concentration-effect curve) (LXFA 297): 24
- t (top plateau of concentration-effect curve) (LXFA 297): 100
- b (bottom plateau of concentration-effect curve) (PXF 1752): 15
- t (top plateau of concentration-effect curve) (PXF 1752): 109
- b (bottom plateau of concentration-effect curve) (GXA 3040): 13
- t (top plateau of concentration-effect curve) (GXA 3040): 94
- b (bottom plateau of concentration-effect curve) (CXF 1297): 15
- t (top plateau of concentration-effect curve) (CXF 1297): 90
- b (bottom plateau of concentration-effect curve) (MEXF 276): 15
- t (top plateau of concentration-effect curve) (MEXF 276): 95
- b (bottom plateau of concentration-effect curve) (GXF 214): 6
- t (top plateau of concentration-effect curve) (GXF 214): 99
- b (bottom plateau of concentration-effect curve) (PAXF 2059): 18
- t (top plateau of concentration-effect curve) (PAXF 2059): 130
- b (bottom plateau of concentration-effect curve) (LXFA 623): 10
- t (top plateau of concentration-effect curve) (LXFA 623): 92
- b (bottom plateau of concentration-effect curve) (CXF 280): 5
- t (top plateau of concentration-effect curve) (CXF 280): 101
- b (bottom plateau of concentration-effect curve) (MAXF 713): 43
- t (top plateau of concentration-effect curve) (MAXF 713): 108
- b (bottom plateau of concentration-effect curve) (CXF 742): 0
- t (top plateau of concentration-effect curve) (CXF 742): 100
- b (bottom plateau of concentration-effect curve) (LXFE 397): 35
- t (top plateau of concentration-effect curve) (LXFE 397): 100
